Measurements taken from a compilation of properties of binary mixtures (doi:10.1007/s10953-015-0325-1).

Assay: xn = mol fraction of the nth substance listed
Details: 100 kPa

CCCCCC[n+]1ccn(C)c1.F[P-](F)(F)(F)(F)F + CCCN
speed of sound [m/s]
Details	x2 = 0	x2 = 0.0873	x2 = 0.1718	x2 = 0.2686	x2 = 0.3426	x2 = 0.4606	x2 = 0.5627	x2 = 0.6597	x2 = 0.7913	x2 = 0.902
293.15 K	1436.9	–	1411	1396.5	1385.5	1365.7	1347.1	1324	1289.8	1258.5
298.15 K	1423.5	1408	–	1382.6	1370.4	1350.8	1330.3	1309	1271.5	1238.6
303.15 K	1410.6	1396.1	–	1366.5	1354.3	–	–	1291.1	1253.1	1216.1
308.15 K	1398.2	–	1370.6	1351.7	1337.3	1315.3	–	–	1230.8	1193
313.15 K	–	1372.5	1357.5	1336.2	1320.4	1297.1	–	1250	–	1170

CCCCCCCC[n+]1ccn(C)c1.F[P-](F)(F)(F)(F)F + CCCN
x2 = 0
Details	speed of sound [m/s]
293.15 K	1421.2
298.15 K	1406.4
308.15 K	1378.8
313.15 K	1365.7

CCCN + CCCCCC[n+]1ccn(C)c1.F[P-](F)(F)(F)(F)F
x1 = 1
Details	speed of sound [m/s]
293.15 K	1238.3
303.15 K	1189.5
308.15 K	1164.9
313.15 K	1140.4

CCCN + CCCC[n+]1ccn(C)c1.F[P-](F)(F)(F)(F)F
speed of sound [m/s]
Details	x1 = 0.0684	x1 = 0.155	x1 = 0.2613	x1 = 0.3519	x1 = 0.4366	x1 = 0.5956	x1 = 0.69	x1 = 0.79	x1 = 0.9026	x1 = 1
293.15 K	1444.7	1429.8	1407.5	–	1371.3	–	1315	1288.8	–	–
298.15 K	–	1419.3	1395	–	1355.3	1320.6	–	1269.5	1235.5	–
303.15 K	–	–	1380.5	–	1338	–	1277.6	1247.8	–	1189.5
308.15 K	1412.4	–	1365.2	1341	1319.8	1280.4	1257	1225.2	1189.2	1164.9
313.15 K	1399.6	1380.1	1348.8	1324.5	1300	–	–	1202.5	1165.5	1140.4

CCCC[n+]1ccn(C)c1.F[P-](F)(F)(F)(F)F + CCCN
x2 = 0
Details	speed of sound [m/s]
293.15 K	1454.7
298.15 K	1442.4
303.15 K	1430.3
308.15 K	1418.5
313.15 K	1406.8

CCCN + CCCCCCCC[n+]1ccn(C)c1.F[P-](F)(F)(F)(F)F
speed of sound [m/s]
Details	x1 = 0.0976	x1 = 0.218	x1 = 0.263	x1 = 0.3677	x1 = 0.4676	x1 = 0.5629	x1 = 0.6971	x1 = 0.7972	x1 = 0.9087	x1 = 1
293.15 K	1408	1392.4	1388.7	1375.5	1363.8	–	1327.2	1296.3	1260.5	–
298.15 K	1393.2	1378.7	1375	–	–	1335.9	–	–	1244	1213.9
303.15 K	1381.2	1362.6	1358.9	1344.5	1332.1	1316.2	–	1260.7	–	–
308.15 K	1368.6	1348.2	–	1330.1	1314.1	1299.6	1270.5	1239.1	–	1164.9
313.15 K	–	1333.4	–	1312.1	1295.8	1278.5	–	1218.2	1177.2	1140.4
